The text below walks through data of patent publication EP2559433A1, “Composition for lowering blood lipid and elevating high-density lipoprotein and method for manufacturing the same” (Sunway Biotech Co., Ltd., priority 2011, dated 2013).

SMILES strings stand for the structures.

Assay [1] has as its system hamsters feed with high cholesterol diet. The assay can be described thus: Cholesterol parameters in blood of hamsters fed a high cholesterol diet. The note with it: for LDL/HDL: ratio of LDL-C to HDL-C; for LDL/HDL / HDL-C content / LDL-C content / MDA content / TC content / TG content: high cholesterol diet hamsters fed for 8 weeks; for HDL-C increasing rate / LDL-C reducing rate / LDL/HDL reducing rate / MDA reducing rate / TC reducing rate / TG reducing rate: relative to HC (high cholesterol diet group), 8 weeks; for HDL-C content: serum high density lipoprotein cholesterol; for LDL-C content: serum low density lipoprotein cholesterol; for MDA content: serum malondialdehyde; for TC content: serum total cholesterol, mean ± spread; for TG content: serum triglyceride. On the set-up: TC reducing rate / TG reducing rate / LDL-C reducing rate / LDL/HDL reducing rate / MDA reducing rate: concentration or dose not given beside the values. It is filed as in vivo. As for the experimental part:
Hereinafter, the composition of the first preferred embodiment is called as monascin (MS for abbreviation), and the amount of the monascin taken by an experimental animal is equivalent to 9.82 mg taken by an adult human per day; the composition of the second preferred embodiment is called as ankaflavin (AF for abbreviation), and the amount of the ankaflavin taken by an experimental animal is equivalent to 1.43 mg taken by an adult human per day; the composition of the third preferred embodiment is called as monascin + ankaflavin (MS+AF for abbreviation), and the amount of the monascin and ankaflavin taken by an experimental animal are equivalent to 9.82 mg and 1.43 mg taken by an adult human per day respectively. Additionally, a composition containing monacolin K is utilized as a comparison group, which is called as MK for abbreviation.
(§1) Firstly, the experiment utilizes hamsters feed with high cholesterol diet as experimental animals, which are then feed with MS, AF, MS+AF, and MK for 8 weeks, and then each of cholesterol parameters in blood of the hamsters are analyzed. The cholesterol parameters include total cholesterol (TC), triglyceride (TG), high density lipoprotein cholesterol (HDL-C), low density lipoprotein cholesterol (LDL-C), ratio of LDL-C to HDL-C, and malondialdehyde (MDA). The amount of the MK taken by the experimental animals is equivalent to 2.89 mg taken by an adult human per day. Additionally, a normal diet group is referred to as NOR, and a high cholesterol diet group is referred to as HC.
Referring to the following table 1 and table 2, wherein the table 1 illustrates the results of the above-mentioned animal experiments, and the table 2 illustrates the reducing rate or the increasing rate of MS, AF, MS+AF, and MK relative to HC. […] In the results of the reducing rate of LDL-C, although the group of MS has the effect almost the same as MK, the groups of AF and MS+AF have the effect of lowering the amount of LDL-C better than the MK group. […]

Assay [2] has as its system cholesterol biosynthesis. The assay can be described thus: Cell experiment on inhibition of cholesterol biosynthesis. It is filed as cell-based. The note with it: Fig. 12; cells treated at the same concentration (100 ppb). The text has this:
In order to compare the inhibitory effect of cholesterol biosynthesis by monascin, ankaflavin and monacolin K, the present invention applies a cell experiment and treats cells with monascin, ankaflavin and monacolin K with the same concentration (100 ppb) for researching the influence of these ingredients on the cholesterol biosynthesis. Referring to Fig. 12, which is a comparative diagram for the effect of the inhibition of cholesterol by monascin, ankaflavin and monacolin K with the same concentration.

Assay [3] has as its system lipid plaque on arterial vascular walls in the thoracic cavity. The assay can be described thus: Lipid plaque staining in arteries. The note with it: Fig. 11; high cholesterol diet for eight weeks; MK 2.89 mg, MS 9.82 mg, AF 1.43 mg adult human equivalent per day. The assay is classed as in vivo, hamsters. As for the experimental part:
as §1
Another important indicator for evaluating atherosclerosis is the analysis of lipid plaque staining in arteries, and the results of lipid plaque staining can indicate that whether lipid plaque deposits on arterial vascular walls. Large amounts of lipid with over-oxidation can cause bulk deposition of foam cells, and then the vascular walls lose elasticity and large amounts of lipid plaque are deposited, so as to lead to atherosclerosis. Referring to Fig. 11, which is a diagram of quantitative results of the lipid plaque staining experiment.

As for `C/C=C/C1=CC2=C(CO1)C(=O)[C@]1(C)OC(=O)[C@H](C(=O)CCCCCCC)[C@H]1C2` [AF, ankaflavin], in assay [1], the LDL/HDL is on record as 0.355 ±0.049, the HDL-C increasing rate is listed as 17.3%, the LDL-C reducing rate is on record as 42.3% and the LDL/HDL reducing rate is 37.6%. Also, in assay [1], the MDA reducing rate is listed as 59.6%, the TC reducing rate came out at 28.6%, the TG reducing rate was 58.2% and the HDL-C content worked out at 118.6 ± 8.09 mg/dL. In assay [1], this compound showed an LDL-C content of 39.4 ± 5.80 mg/dL, an MDA content of 9.07 ± 1.45 mg/dL, a TC content of 168.9 ± 11.5 mg/dL and a TG content of 94.5 ± 18.0 mg/dL.
Take `CC[C@H](C)C(=O)O[C@H]1C[C@@H](C)C=C2C=C[C@H](C)[C@H](CC[C@@H]3C[C@@H](O)CC(=O)O3)[C@H]21` [MK, monacolin K, reference compound]: the “effect of inhibiting the biosynthesis of cholesterol” value in assay [2] is reported as “has the weakest effect”. In assay [1], the LDL/HDL came to 0.489 ±0.050, the HDL-C increasing rate was -1.2%, the LDL-C reducing rate was found to be 34.1% and the LDL/HDL reducing rate is 14.1%. Further, in assay [1], the MDA reducing rate is 16.5%, the TC reducing rate is 19.6%, the TG reducing rate is recorded as 42.1% and the HDL-C content was determined as 96.9 ± 8.84 mg/dL. Besides, in assay [1], the LDL-C content came to 45.0 ± 6.97 mg/dL, the MDA content came to 10.37 ± 1.73 mg/dL, the TC content is 190.3 ± 25.1 mg/dL and the TG content was found to be 131.1 ± 36.7 mg/dL. In addition, in assay [3], the “amount of lipid plaque” value was “can lower the amount of lipid plaque”.
Take `C/C=C/C1=CC2=C(CO1)C(=O)[C@]1(C)OC(=O)[C@H](C(=O)CCCCC)[C@H]1C2` [MS, monascin]: in assay [1], the LDL/HDL was 0.416 ±0.022, the HDL-C increasing rate is 14.1%, the LDL-C reducing rate came to 33.9% and the LDL/HDL reducing rate turned out to be 26.9%. Besides, in assay [1], the MDA reducing rate was 40.1%, the TC reducing rate came out at 29.9%, the TG reducing rate worked out at 63.4% and the HDL-C content was found to be 114.2 ± 9.36 mg/dL. In assay [1], this compound had an LDL-C content of 45.1 ± 3.36 mg/dL, an MDA content of 8.62 ± 1.45 mg/dL, a TC content of 165.8 ± 10.6 mg/dL and a TG content of 82.8 ± 9.0 mg/dL.
